These results are taken from US20260035369A1, “VINCAMINE DERIVATIVES, PREPARATION METHOD THEREFOR, AND USE THEREOF” (SOUTHWEST UNIVERSITY, priority 2023, published 2026).

This series deals with bEnd.3 cells. The experiment in a line: Cellular ROS levels (DCFH-DA) by single cell analyzer. Particulars: 2 hours, FIG. 10. The class given is cell-based. On the procedure: (10) The effect of lipid nanoparticles formed from the vincamine derivative (compound 2 (A5-B2-C6) as an example) on cellular ROS levels was detected using a single cell analyzer:
To detect cellular oxidative stress and intracellular reactive oxygen species (ROS) levels, a dichlorodihydrofluorescein diacetate (DCFH-DA) reactive oxygen species assay kit was used to detect the green fluorescence signal of ROS. bEnd.3 cells were seeded in cell culture dishes (50000 cells per dish) and cultured in 1 mL of culture medium for 12 hours. The culture medium in the wells was discarded and replaced with fresh complete medium. Lipid nanoparticles formed from the vincamine derivative (compound 2 (A5-B2-C6)) were added to the cells, and the cells were incubated in the dark at 37° C. in a 5% CO2 atmosphere for 2 hours. The cells in each group were incubated in PBS buffer containing […] DCFH-DA at 37° C. for 30 min. The cells were then washed three times in PBS buffer solution containing 0.1% BSA and fixed on glass slides. ROS levels were detected at the single-cell level using a fiber optic probe with a tip of approximately […]. The tip was inserted into the cells fixed in PBS, and photon counts were continuously detected and calculated within 150 s.

Regarding `CCCCCCCC/C=C\CCCCCCCC(=O)OCC(C[N+](C)(C)C)OC(=O)CCCCCCC/C=C\CCCCCCCC` (centres unmarked) [DOTAP], the “cellular ROS levels” value is “high ROS levels”.

On to `CCCCC/C=C\C/C=C\CCCCCCCCC(CCCCCCCC/C=C\C/C=C\CCCCC)OC(=O)CCCN(C)C` [Dlin-MC3-DMA], for which the “cellular ROS levels” value is “high ROS levels”.
